Results on 1 molecule are retold here after article PMC12756723, “Derivatives of the Cashew Nut Shell Liquid as Ligands of Pseudomonas aeruginosa Phenazine Protein D (PaPhzD)” (ACS Omega, 2025).

Assay [1] has as its target T1, PaPhzD-FITC (Pseudomonas aeruginosa, UniProt P0DPB9).
T1 construct: inferred from Ni-NTA purification with imidazole elution; made in house; host or cells: E. coli BL21(DE3)
Briefly: Fluorescence binding assay with FITC-labeled PaPhzD. The settings on record: 0.32 μM FITC-labeled PaPhzD, 25 °C, 3-parameter fit; read-out: Kd. As for the experimental part: PaPhzD (2.1 mg/mL) was incubated with 6 mg/mL fluorescein isothiocyanate (FITC) (Sigma-Aldrich 46950) (1:1) for 2 h at 25 °C. Next, the reaction mixture was eluted on a Hi-Trap HP desalting column (GE Healthcare) with 2 CV of 50 mM HEPES buffer (pH 8.0). The collected fractions were quantified at two different wavelengths (280 and 495 nm), and the molar ratio (Abs495/Abs280) ranging from 0.3 to 1.0 was employed for K d calculation experiments.
Subsequently, the fluorescence intensity of 0.32 μM of FITC-labeled PaPhzD was measured on a real-time thermocycler (Applied Biosystems 7500) equipped with the filter FAN (excitation wavelength: 498 nm; emission wavelength: 530 nm) for 10 min in the presence of different concentrations of each LDT compound (ranging 0.7–100 μM), previously diluted in DMSO.
The fluorescence raw data were recorded using Applied Biosystems 7500 Software v2.0, then exported to GraphPad Prism version 9.0 software to build fluorescence intensity × concentration plots and calculate K d values of the ligands by the nonlinear regression method (3-parameter fit). All experiments were carried out in triplicate using a 96-well PCR plate, manually sealed with transparent capping strips (Flatcap strips, BioRadVR).

Assay [2] has as its system P. aeruginosa cells (ATCC 27853). Briefly: Screening of PYO production inhibitors (supernatant absorbance 691 nm). It is filed as cell-based, Pseudomonas aeruginosa. The note with it: 100 μM. As for the experimental part: P. aeruginosa cells (ATCC 27853) were inoculated by depletion on King’s A agar, and the plates were incubated at 30 °C for 24 h. Isolated colonies were collected and resuspended in sterile saline solution (0.85%) until turbidity equivalent to optical density (OD) at 600 nm, equal to 0.3 (1.5 × 10^8 CFU/mL). This bacterial suspension was diluted 10-fold and used to inoculate King’s A broth.
The potential inhibitors, previously solubilized in DMSO, were added to the culture medium after the inoculation (final concentration = 100 μM). The control group was cultured in the presence of an equivalent volume of DMSO but without the presence of potential inhibitors. The cell suspension was maintained at 30 °C under constant agitation (180 rpm) for 24 h in a 24-well plate. After this period, the OD600 was measured to evaluate bacterial growth, and in parallel, after being subjected to centrifugation, the supernatant was read in a 96-well plate at a wavelength of 691 nm. The sterile medium used for culturing the microorganism was used as a positive control, and culture medium containing 1% DMSO was used as a negative control.

The subject of assay [3] is P. aeruginosa PA14. In words: Biofilm assay (crystal violet). It is filed as cell-based, Pseudomonas aeruginosa. The note with it: 100 μM, vs DMSO control. As for the experimental part: Exponential phase cultures of P. aeruginosa PA14 were diluted to 5 × 10^5 colony forming units (CFU) in 48-well plates with LB containing each compound (1, 3, and 5) at 100 μM final concentrations or 0.1% DMSO (v/v) as a negative control. The plate was incubated steadily at 30 °C for 20 h inside a plastic bag to avoid evaporation. After the incubation, the OD600 of each well was measured in a plate reader (SpectraMax Paradigm). The planktonic bacteria were removed by turning the plate over the waste, followed by three steps of washing with distilled water. After drying, a solution of 1% crystal violet was added to each well and incubated at room temperature for 30 min to stain the attached cells forming a ring at the air–liquid interface. The crystal violet solution was removed, and the plate was washed using the same procedure. The dye was solubilized with 30% acetic acid for 30 min at room temperature. The Abs550 was measured, and the value was divided by the OD600 for each well. A total of 24 replicates were made for each treatment (6 wells per plate, four plates)

Assay [4] has as its system P. aeruginosa PA14. Briefly: Swarming assay. It is filed as cell-based, Pseudomonas aeruginosa. The note with it: 100 μM. The protocol: Swarming assays were performed as described, using 6-well plates. Briefly, 3 μL of culture (OD600 = 3.0) was inoculated in the center of modified M9 (20 mM NH4Cl; 12 mM Na2HPO4; 22 mM KH2PO4; 8.6 mM NaCl; 1 mM MgSO4; 1 mM CaCl2 2 H2O; 11 mM glucose; 0.5% casamino acids (Difco)) with 0.5% of Bacto-agar (Difco), containing the respective compounds (100 μM final concentration, diluted in DMSO). Plates were incubated inside plastic bags to avoid evaporation at 30 °C for 16 h. After this period, pictures were taken, and the area covered by the colonies was measured using ImageJ. All assays were performed with four replicates, and 0.1% DMSO (v/v) was employed as a negative control.

Assay [5] relates to P. aeruginosa. Briefly: Colony morphology in medium containing compounds. The settings on record: data not shown. The assay is classed as cell-based, Pseudomonas aeruginosa.
For assay [6], the system named is phzA1-G1. In words: lacZ transcriptional fusion, phzA1-G1 operon. The assay is classed as cell-based, Pseudomonas aeruginosa. The note with it: late exponential phase. The protocol: (§1) P. aeruginosa harbors two identically structured operons in its genome, which encode most of the enzymes responsible for PYO synthesis (phzA1-G1 and phzA2-G2) but have slightly different regulatory regions 1. lacZ transcriptional fusions for each operon were assayed at mid-log and late exponential phases (OD=1 and 3, respectively). At mid-log cultures, the expression of both QS-regulated operons is extremely low, and it increases more than 1000-fold at late exponential phase for phzA1-G1 and 4-fold for phzA2-G2, as expected. Addition of compounds 2 and 4 had no effect for both operons in the late […]
(§2) synthesis is not related to inhibition at the transcriptional level.
(§3) Figure 7S: Effect of LDT10 (2) and LDT13 (3) on the phzA1-G1 (A) and phzA2-G2 […]
(§4) (1 picture or pasted object on this page, not shown here)

Assay [7] concerns phzA2-G2. Briefly: lacZ transcriptional fusion, phzA2-G2 operon. The assay is classed as cell-based, Pseudomonas aeruginosa. The note with it: late exponential phase. The protocol: as §1, §2, §3, §4
In assay [8] the test system is KinA/SPOOF. Set-up: method as in Kanojia et al. The note with it: KinA/SPOOF from B. subtilis; ref Kanojia et al.; cited from earlier work.

“Also recorded” adds a separate entry of the source.

T1 sequence (P0DPB9 whole entry): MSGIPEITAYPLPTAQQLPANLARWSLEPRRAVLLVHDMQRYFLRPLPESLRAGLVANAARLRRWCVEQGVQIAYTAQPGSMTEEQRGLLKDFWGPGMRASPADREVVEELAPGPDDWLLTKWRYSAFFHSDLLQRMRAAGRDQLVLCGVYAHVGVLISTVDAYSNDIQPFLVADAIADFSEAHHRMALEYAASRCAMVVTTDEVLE

In general, Kd refers to the constant that tells how readily two partners part at equilibrium. Broadly, the IC50 is the concentration that gives 50% inhibition. Consider `CCCCCCCCCCCCCCCc1cccc(O)c1` [Compound 2], for which the equilibrium dissociation constant (Kd) in assay [1] was determined as 2.8 µM. Further, the “Pyocyanin production, Cohen's d vs control” value in assay [2] (24 h, 30 °C) was −2.56. Moreover, in assay [2] (vs DMSO control), the “Effect on pyocyanin production” value is reported as “decreased pyocyanin production”. The “Effect on biofilm formation” value in assay [3] was “without affecting bacterial growth or biofilm formation; also recorded: not significantly different the control”. For the same molecule, in assay [4], the “Swarming motility, % compared to control conditions” value was found to be 65% and the “Swarming motility, Cohen's d vs control” value is reported as −0.91. Further, the “Effect on colony morphology” value in assay [5] was “No effects on colony morphology”. Besides, the “Effect on phzA1-G1 transcription” value in assay [6] is reported as “no effect”. In addition, in assay [7], the “Effect on phzA2-G2 transcription” value is given as “no effect”. In addition, the IC50 in assay [8] was > 500 µM.
